According to paper PMC3265452 (PLoS Neglected Tropical Diseases, 2012):
Where a name gives a salt, the structure may show the parent alone.

Biological target: AaDOP2 (Aedes aegypti, UniProt H6D5H2)
Assay: AaDOP2 antagonist screen of the LOPAC1280 library (HEK-CRELuc-Aadop2 cells, luminescence)
Format: cell-based
Conditions: not given

Chain of AaDOP2 (H6D5H2 1-476): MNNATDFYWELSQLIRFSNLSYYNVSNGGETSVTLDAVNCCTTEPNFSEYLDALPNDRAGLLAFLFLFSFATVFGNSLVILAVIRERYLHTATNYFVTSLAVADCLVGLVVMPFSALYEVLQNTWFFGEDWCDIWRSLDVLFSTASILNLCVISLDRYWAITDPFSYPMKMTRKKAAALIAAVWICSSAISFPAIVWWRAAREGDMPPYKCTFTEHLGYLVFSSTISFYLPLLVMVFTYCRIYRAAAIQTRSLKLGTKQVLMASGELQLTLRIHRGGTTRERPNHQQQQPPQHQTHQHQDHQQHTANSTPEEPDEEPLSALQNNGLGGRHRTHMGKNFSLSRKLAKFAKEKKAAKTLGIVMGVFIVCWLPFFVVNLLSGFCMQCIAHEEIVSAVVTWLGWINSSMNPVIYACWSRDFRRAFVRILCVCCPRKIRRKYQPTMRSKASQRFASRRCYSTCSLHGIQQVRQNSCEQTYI

First: C[C@@H]1O[C@H](C[N+](C)(C)C)C[C@H]1O.[Cl-] (racemic) [Compound 814, (±)-Muscarine chloride]
Second: CC1OCC(C[N+](C)(C)C)O1.[I-] (single isomer, unassigned; (+)) [Compound 325, (+)-cis-Dioxolane iodide]
The “Compound effect (percent receptor signaling in presence of test compound, relative lux units relative to the SCH23390 control)” value of the first is higher: 104 for the first, 96 for the second.

Compared with `COc1cc(C(O)CN)ccc1O.Cl` (racemic) [Compound 862, (±)-Normetanephrine hydrochloride], `NCC(O)c1ccc(O)cc1` (racemic) [Compound 894, (±)-Octopamine hydrochloride, reference compound] is higher in “Compound effect (percent receptor signaling in presence of test compound, relative lux units relative to the SCH23390 control)” value: 81 for the first, 104 for the second.

Going from `CN1CCN(C2Cc3ccccc3Sc3ccc(Cl)cc32)CC1.O=C(O)/C=C\C(=O)O` (racemic) [Compound 913, (±)-Octoclothepin maleate] to `Br.C=CCN1CCc2cc(O)c(O)cc2C(c2ccccc2)C1` (racemic) [Compound 1139, (±)-SKF 38393, N-allyl-, hydrobromide], the “Compound effect (percent receptor signaling in presence of test compound, relative lux units relative to the SCH23390 control)” value rises from 3 to 70.

First: CC(C)NCC(O)COc1cccc2ccccc12.Cl (racemic) [Compound 922, (±)-Propranolol hydrochloride]
Second: O=C(O)c1ccccc1Nc1ccccc1 [Compound 2, N-Phenylanthranilic acid]
The “Compound effect (percent receptor signaling in presence of test compound, relative lux units relative to the SCH23390 control)” value of the first is higher: 102 for the first, 100 for the second.

Going from `CCCCCCCCCCCCCCCC(=O)OC(CC(=O)O)C[N+](C)(C)C.[Cl-]` (racemic) [Compound 943, Palmitoyl-DL-Carnitine chloride] to `CCCCCCCCCCCCCCCCCC(=O)OC(CC(=O)O)C[N+](C)(C)C.[Cl-]` (racemic) [Compound 1088, DL-Stearoylcarnitine chloride], the “Compound effect (percent receptor signaling in presence of test compound, relative lux units relative to the SCH23390 control)” value rises from 59 to 101.

Compared with `O=C(O)[C@H]1CCCN[C@H]1C(=O)O` (racemic) [Compound 985, (±)-cis-Piperidine-2,3-dicarboxylic acid], `O=C(O)[C@H]1C[C@H](C(=O)O)N1` (relative stereo) [Compound 146, trans-Azetidine-2,4-dicarboxylic acid] is higher in “Compound effect (percent receptor signaling in presence of test compound, relative lux units relative to the SCH23390 control)” value: 108 for the first, 110 for the second.

`CNCC(O)c1ccc(O)cc1` (racemic) [Compound 1077, (±)-Synephrine] and `CC(N)C(O)c1ccc(O)c(O)c1` (single isomer, unassigned; (-)) [Compound 388, (-)-alpha-Methylnorepinephrine] are the same in “Compound effect (percent receptor signaling in presence of test compound, relative lux units relative to the SCH23390 control)” value: 88 for the first, 88 for the second.

Compared with `O=C1c2c(O)cc(O)cc2O[C@H](c2ccc(O)c(O)c2)[C@H]1O` (racemic) [Compound 1176, (±)-Taxifolin], `COc1ccc2c(c1OC)C(=O)OC2C1c2cc3c(cc2CCN1C)OCO3` (single isomer, unassigned; (+)) [Compound 605, (+)-Hydrastine] is higher in “Compound effect (percent receptor signaling in presence of test compound, relative lux units relative to the SCH23390 control)” value: 102 for the first, 122 for the second.

First: O=C(O)CCCCC1CCSS1 (racemic) [Compound 1185, (±)-alpha-Lipoic Acid]
Second: Cl.NCCCCC(=O)O [Compound 4, 5-Aminovaleric acid hydrochloride]
The “Compound effect (percent receptor signaling in presence of test compound, relative lux units relative to the SCH23390 control)” value of the first is lower: 111 for the first, 115 for the second.

First: O=C(O)CNC(=O)C(CS)Cc1ccccc1 (racemic) [Compound 1186, DL-Thiorphan]
Second: NCCc1c[nH]c2ccccc12 [Compound 7, Tryptamine hydrochloride]
The “Compound effect (percent receptor signaling in presence of test compound, relative lux units relative to the SCH23390 control)” value of the first is lower: 107 for the first, 121 for the second.

Compared with `COc1ccc(CCN(C)CCCC(C#N)(c2ccc(OC)c(OC)c2)C(C)C)cc1OC.Cl` (racemic) [Compound 1252, (±)-Verapamil hydrochloride], `COc1ccc2[nH]c3c(c2c1)CCNC3` [Compound 9, 6-Methoxy-1,2,3,4-tetrahydro-9H-pyrido[3,4b] indole] is lower in “Compound effect (percent receptor signaling in presence of test compound, relative lux units relative to the SCH23390 control)” value: 117 for the first, 116 for the second.

Going from `Cl.OC1CCCCC1N1CCC(c2ccccc2)CC1` (racemic) [Compound 1259, (±)-Vesamicol hydrochloride] to `CC1C2Cc3ccc(O)cc3C1(C)CCN2CC1CC1` (single isomer, unassigned; (+)) [Compound 341, (+)-Cyclazocine], the “Compound effect (percent receptor signaling in presence of test compound, relative lux units relative to the SCH23390 control)” value falls from 97 to 86.

Going from `C[C@]12CC[C@H](O)CC1=CC[C@@H]1[C@@H]2CC[C@]2(C)C(=O)CC[C@@H]12` (relative stereo) [Compound 381, trans-Dehydroandrosterone] to `COc1ccc2c3c1OC1C(=O)CC[C@@]4(O)[C@@H](C2)N(CC2CC2)CC[C@]314.Cl` (single isomer, unassigned; (-)) [Compound 836, (-)-3-Methoxynaltrexone hydrochloride], the “Compound effect (percent receptor signaling in presence of test compound, relative lux units relative to the SCH23390 control)” value falls from 114 to 75.

Going from `C=CCN1CCC2(C)c3cc(O)ccc3CC1C2C.Cl` (single isomer, unassigned; (+)) [Compound 123, (+)-N-Allylnormetazocine hydrochloride] to `O=C(O)c1cc2cc(F)ccc2[nH]1` [Compound 8, 5-Fluoroindole-2-carboxylic acid], the “Compound effect (percent receptor signaling in presence of test compound, relative lux units relative to the SCH23390 control)” value rises from 90 to 92.

Going from `O=C(O)CCCCCCCC(=O)O` [Compound 6, Azelaic acid] to `Nc1nc(SCc2ccc([N+](=O)[O-])cc2)c2ncn([C@@H]3O[C@H](CO)[C@@H](O)[C@H]3O)c2n1` [Compound 10, S-(4-Nitrobenzyl)-6-thioguanosine], the “Compound effect (percent receptor signaling in presence of test compound, relative lux units relative to the SCH23390 control)” value falls from 107 to 105.

With `CN1CCN(C2Cc3ccccc3Sc3ccc(Cl)cc32)CC1.O=C(O)/C=C\C(=O)O` (racemic) [Compound 913, (±)-Octoclothepin maleate] the “% of the SCH23390 effect (percent inhibition of receptor response relative to the SCH23390 control)” value was 97%.

Same assay, conditions: 10 µM compound, 300 nM dopamine, 2 hr; hit = compound effect <20

Compared with `CC(N)(Cc1ccc(O)c(O)c1)C(=O)O` (racemic) [Compound 797, (±)-3-(3,4-dihydroxyphenyl)-2-methyl-DL-alanine], `CCN1CCCC1CNC(=O)c1cc(S(N)(=O)=O)ccc1OC` (racemic) [Compound 1113, (±)-Sulpiride] is higher in “Compound effect (percent receptor signaling in presence of test compound, relative lux units relative to the SCH23390 control)” value: 99% for the first, 114% for the second.

Going from `CCCCCCCCCC(=O)NC(CN1CCOCC1)[C@H](O)c1ccccc1.Cl` (mixture of isomers) [Compound 968, (±)-threo-1-Phenyl-2-decanoylamino-3-morpholino-1-propanol hydrochloride] to `CCCN(CCc1ccccc1)C1CCc2c(O)cccc2C1.Cl` (racemic) [Compound 1005, (±)-PPHT hydrochloride], the “Compound effect (percent receptor signaling in presence of test compound, relative lux units relative to the SCH23390 control)” value falls from 85% to 73%.

Compared with `CCN1CCC[C@H]1CNC(=O)c1c(O)c(Cl)cc(Cl)c1OC.O=C(O)C(O)C(O)C(=O)O` (racemic) [Compound 1069, S(+)-Raclopride L-tartrate], `Brc1ccc([C@H]2CN3CCSC3=N2)cc1.O=C(O)C(=O)O` [Compound 3, S(-)-p-Bromotetramisole oxalate] is higher in “Compound effect (percent receptor signaling in presence of test compound, relative lux units relative to the SCH23390 control)” value: 76% for the first, 106% for the second.

Compared with `CC(C)NCC(O)c1ccc(NS(C)(=O)=O)cc1.Cl` (racemic) [Compound 1074, (±)-Sotalol hydrochloride], `CC[C@@H]1Cc2cc(O)ccc2C2=C1c1ccc(O)cc1C[C@H]2CC` (relative stereo) [Compound 423, (R,R)-cis-Diethyl tetrahydro-2,8-chrysenediol] is lower in “Compound effect (percent receptor signaling in presence of test compound, relative lux units relative to the SCH23390 control)” value: 125% for the first, 40% for the second.

First: Br.Oc1cc2c(c(Cl)c1O)CCNCC2c1ccccc1 (racemic) [Compound 1133, (±)-6-Chloro-PB hydrobromide]
Second: O=C1CCC(N2C(=O)c3ccccc3C2=O)C(=O)N1 (racemic) [Compound 1227, (±)-Thalidomide]
The “Compound effect (percent receptor signaling in presence of test compound, relative lux units relative to the SCH23390 control)” value of the first is lower: 99% for the first, 107% for the second.

First: C=CC(N)CCC(=O)O (racemic) [Compound 1256, (±)-gamma-Vinyl GABA]
Second: Nc1ncnc2c1nc(Sc1ccc(Cl)cc1)n2C1OC2COP(=O)(O)O[C@H]2C1O (stereo in doubt) [Compound 251, 8-(4-Chlorophenylthio)-cAMP sodium]
The “Compound effect (percent receptor signaling in presence of test compound, relative lux units relative to the SCH23390 control)” value of the first is higher: 108% for the first, 97% for the second.

For `NC(=S)c1ccc[n+]([C@@H]2OC(COP(=O)([O-])OP(=O)(O)OC[C@H]3O[C@@H](n4cnc5c(N)ncnc54)[C@H](OP(=O)(O)O)[C@@H]3O)C(O)C2O)c1` (stereo in doubt) [Compound 1183, Thio-NADP sodium], the “Compound effect (percent receptor signaling in presence of test compound, relative lux units relative to the SCH23390 control)” value was 84%.
